From patent US7396837B2, “Antitumoral analogs of lamellarins” (Pharma Mar, S.A.U., priority 2002, dated 2008)
Where two headings read alike, the source gives them in different places.

Tests used:
Type in all cases: cell-based
IGROV-ET = experiment: SRB colorimetric cell growth inhibition assay, IGROV-ET (ET-743 resistant); details: Homo sapiens, IGROV-ET; for GI50: GI=growth inhibition, read-out: GI50 IGROV-ET; for CC50: cell killing (cytotoxic effect), read-out: LC50 IGROV-ET; for IC (TGI): total growth inhibition (cytostatic effect), read-out: TGI IGROV-ET
From the text: (§1) The finality of these assays is to interrupt the growth of an “in vitro” tumor cell culture by means a continued exhibition of the cells to the sample to be testing.
(§2) A colorimetric type of assay, using sulforhodamine B (SRB) reaction has been adapted for a quantitative measurement of cell growth and viability (following the technique described by P. A. Skehan, et al., J. Natl. Cancer Inst. 1990, 82, 1107-1112).
(§3) This form of assay employs 96 well cell culture microplates of 9 mm diameter (T. Mosmann et al., J. of Immunological Methods 1983, 65, 55-63; G. T. Faircloth et al., J. of Tissue and Culture Methods 1988, 11, 201-205).
(§4) Most of the cell lines are obtained from American Type Culture Collection (ATCC) derived from different human cancer types.
(§5) The values for mean +/− SD of data from triplicate wells are calculated. Some parameters for cellular responses can be calculated: GI=growth inhibition, TGI=total growth inhibition (cytostatic effect) and LC=cell killing (cytotoxic effect).

SK-MEL-28 = experiment: SRB colorimetric cell growth inhibition assay, SK-MEL-28; details: Homo sapiens, SK-MEL-28, MEL-28
From the text: as §1, §2, §3, §4, §5

IGROV = experiment: SRB colorimetric cell growth inhibition assay, IGROV
From the text: as §1, §2, §3, §4, §5

LNCaP = experiment: SRB colorimetric cell growth inhibition assay, LNCaP; details: Homo sapiens, LNCaP, LN-caP
From the text: as §1, §2, §3, §4, §5

HT-29 = experiment: SRB colorimetric cell growth inhibition assay, HT-29; details: Homo sapiens; for CC50: cell killing (cytotoxic effect), read-out: LC50 HT-29; for GI50: GI=growth inhibition, read-out: GI50 HT-29; for IC (TGI): total growth inhibition (cytostatic effect), read-out: TGI HT-29
From the text: as §1, §2, §3, §4, §5

A-549 = experiment: SRB colorimetric cell growth inhibition assay, A-549; details: Homo sapiens, A549, A-549; for GI50: GI=growth inhibition, read-out: GI50 A-549; for CC50: cell killing (cytotoxic effect), read-out: LC50 A-549; for IC (TGI): total growth inhibition (cytostatic effect), read-out: TGI A-549
From the text: as §1, §2, §3, §4, §5

HeLa-APL = experiment: SRB colorimetric cell growth inhibition assay, HeLa-APL (aplidine resistant); details: Homo sapiens; for GI50: read-out: GI50 HELA-APL; for CC50: read-out: LC50 HELA-APL; for IC (TGI): read-out: TGI HELA-APL
From the text: as §1, §2, §3, §4, §5

LoVo = experiment: SRB colorimetric cell growth inhibition assay, LoVo; details: Homo sapiens; for CC50: cell killing (cytotoxic effect), read-out: LC50 LOVO; for GI50: GI=growth inhibition, read-out: GI50 LOVO; for IC (TGI): total growth inhibition (cytostatic effect), read-out: TGI LOVO
From the text: as §1, §2, §3, §4, §5

SK-BR-3 = experiment: SRB colorimetric cell growth inhibition assay, SK-BR-3; details: Homo sapiens; for CC50: cell killing (cytotoxic effect), read-out: LC50 SK-BR-3; for GI50: GI=growth inhibition, read-out: GI50 SK-BR-3; for IC (TGI): total growth inhibition (cytostatic effect), read-out: TGI SK-BR-3
From the text: as §1, §2, §3, §4, §5

HeLa = experiment: SRB colorimetric cell growth inhibition assay, HeLa; details: Homo sapiens, HeLa; for GI50: read-out: GI50 HELA; for CC50: read-out: LC50 HELA; for IC (TGI): read-out: TGI HELA
From the text: as §1, §2, §3, §4, §5

DU-145 = experiment: SRB colorimetric cell growth inhibition assay, DU-145; details: Homo sapiens; for CC50: cell killing (cytotoxic effect), read-out: LC50 DU-145; for GI50: GI=growth inhibition, read-out: GI50 DU-145; for IC (TGI): total growth inhibition (cytostatic effect), read-out: TGI DU-145
From the text: as §1, §2, §3, §4, §5

PANC-1 = experiment: SRB colorimetric cell growth inhibition assay, PANC-1; details: Homo sapiens; for CC50: cell killing (cytotoxic effect), read-out: LC50 PANC-1; for IC (TGI): total growth inhibition (cytostatic effect), read-out: TGI PANC-1; for GI50: GI=growth inhibition, read-out: GI50 PANC-1
From the text: as §1, §2, §3, §4, §5

LoVo-Dox = experiment: SRB colorimetric cell growth inhibition assay, LoVo-Dox (MDR); details: Homo sapiens, LOVO-DOX; for GI50: GI=growth inhibition, read-out: GI50 LOVO-DOX; for CC50: cell killing (cytotoxic effect), read-out: LC50 LOVO-DOX; for IC (TGI): total growth inhibition (cytostatic effect), read-out: TGI LOVO-DOX
From the text: as §1, §2, §3, §4, §5

K-562 = experiment: SRB colorimetric cell growth inhibition assay, K-562; details: Homo sapiens, K562, K-562
From the text: as §1, §2, §3, §4, §5

[1] = Homo sapiens, IGROV; cell killing (cytotoxic effect); read-out: LC50 IGROV

With CC[C@H](C)[C@H](NC(=O)OC(C)(C)C)C(=O)Oc1ccc(-c2c3c4cc(OC)c(OC(=O)[C@@H](NC(=O)OC(C)(C)C)[C@@H](C)CC)cc4oc(=O)c3n3ccc4cc(OC(=O)[C@@H](NC(=O)OC(C)(C)C)[C@@H](C)CC)c(OC)cc4c23)cc1OC [Compound 208] the GI50 (IGROV-ET) was 8.78 µM, the CC50 (IGROV-ET) was 8.78 µM and the IC (TGI) (IGROV-ET) was 8.78 µM. The GI50 (SK-MEL-28; GI=growth inhibition, read-out: GI50 MEL-28) was 8.78 µM, the CC50 (SK-MEL-28; cell killing (cytotoxic effect), read-out: LC50 MEL-28) was 8.78 µM and the IC (TGI) (SK-MEL-28; total growth inhibition (cytostatic effect), read-out: TGI MEL-28) was 8.78 µM. The CC50 (IGROV; [1]) was 8.78 µM, the GI50 (IGROV; Homo sapiens; IGROV; GI=growth inhibition; read-out: GI50 IGROV) was 8.78 µM and the IC (TGI) (IGROV; Homo sapiens; IGROV; total growth inhibition (cytostatic effect); read-out: TGI IGROV) was 8.78 µM. For the same compound, the GI50 (LNCaP; GI=growth inhibition, read-out: GI50 LN-caP) was 1.46 µM, the CC50 (LNCaP; cell killing (cytotoxic effect), read-out: LC50 LN-caP) was 5.83 µM and the IC (TGI) (LNCaP; total growth inhibition (cytostatic effect), read-out: TGI LN-caP) was 2.91 µM. The CC50 (HT-29; HT-29, HT-29) was 8.78 µM, the GI50 (HT-29; HT-29) was 8.78 µM and the IC (TGI) (HT-29; HT-29) was 8.78 µM. It also gave a GI50 (A-549) of 8.78 µM, a CC50 (A-549) of 8.78 µM and an IC (TGI) (A-549) of 8.78 µM. For the same compound, the GI50 (HeLa-APL) was 0.154 µM, the CC50 (HeLa-APL) was 1.14 µM and the IC (TGI) (HeLa-APL) was 0.385 µM. It also gave a CC50 (LoVo; LoVo) of 8.78 µM, a GI50 (LoVo; LOVO) of 8.78 µM and an IC (TGI) (LoVo; LOVO) of 8.78 µM. The CC50 (SK-BR-3; SK-BR-3, SK-BR-3) was 8.78 µM, the GI50 (SK-BR-3; SK-BR-3) was 5.01 µM and the IC (TGI) (SK-BR-3; SK-BR-3) was 7.97 µM. It also gave a GI50 (HeLa) of 0.208 µM, a CC50 (HeLa) of 2.31 µM and an IC (TGI) (HeLa) of 0.618 µM. The CC50 (DU-145; DU-145, DU-145) was 8.78 µM, the GI50 (DU-145; DU-145) was 8.78 µM and the IC (TGI) (DU-145; DU-145) was 8.78 µM. It also gave a CC50 (PANC-1; PANC-1, PANC-1) of 8.78 µM, an IC (TGI) (PANC-1; PANC-1, PANC-1) of 8.78 µM and a GI50 (PANC-1; PANC-1) of 5.92 µM. The GI50 (LoVo-Dox) was 8.78 µM, the CC50 (LoVo-Dox) was 8.78 µM and the IC (TGI) (LoVo-Dox) was 8.78 µM.
C=CCOC(=O)N[C@@H](C)C(=O)Oc1ccc(-c2c3c4cc(OC)c(OC(=O)[C@H](C)NC(=O)OCC=C)cc4oc(=O)c3n3ccc4cc(OC(=O)[C@H](C)NC(=O)OCC=C)c(OC)cc4c23)cc1OC [Compound 210] gave a GI50 (IGROV-ET) of 0.145 µM, a CC50 (IGROV-ET) of 0.92 µM and an IC (TGI) (IGROV-ET) of 0.366 µM. For the same compound, the GI50 (IGROV; Homo sapiens, IGROV; GI=growth inhibition; read-out: GI50 IGROV) was 0.317 µM, the CC50 (IGROV; [1]) was 3.65 µM and the IC (TGI) (IGROV; Homo sapiens, IGROV; total growth inhibition (cytostatic effect); read-out: TGI IGROV) was 1.06 µM. It also gave a GI50 (HT-29; HT-29, HT-29) of 7.09 µM, a CC50 (HT-29; HT-29, HT-29) of 10.4 µM and an IC (TGI) (HT-29; HT-29, HT-29) of 10.4 µM. For the same compound, the GI50 (K-562; GI=growth inhibition, read-out: GI50 K-562) was 0.612 µM, the CC50 (K-562; cell killing (cytotoxic effect), read-out: LC50 K-562) was 6.17 µM and the IC (TGI) (K-562; total growth inhibition (cytostatic effect), read-out: TGI K-562) was 2.13 µM. For the same compound, the GI50 (A-549) was 0.477 µM, the CC50 (A-549) was 10.4 µM and the IC (TGI) (A-549) was 3.94 µM. For the same compound, the GI50 (HeLa-APL; HELA-APL, GI=growth inhibition) was 0.516 µM, the CC50 (HeLa-APL; HELA-APL, cell killing (cytotoxic effect)) was 10.4 µM and the IC (TGI) (HeLa-APL; HELA-APL, total growth inhibition (cytostatic effect)) was 3.08 µM. It also gave a GI50 (LoVo; LoVo) of 2.05 µM, a CC50 (LoVo; LoVo) of 7.76 µM and an IC (TGI) (LoVo; LoVo) of 3.99 µM. It also gave a GI50 (SK-BR-3; SK-BR-3, SK-BR-3) of 0.397 µM, a CC50 (SK-BR-3; SK-BR-3, SK-BR-3) of 4.59 µM and an IC (TGI) (SK-BR-3; SK-BR-3, SK-BR-3) of 1.36 µM. For the same compound, the GI50 (HeLa; GI=growth inhibition) was 0.611 µM, the CC50 (HeLa; cell killing (cytotoxic effect)) was 10.4 µM and the IC (TGI) (HeLa; total growth inhibition (cytostatic effect)) was 5.54 µM. For the same compound, the GI50 (DU-145; DU-145, DU-145) was 0.181 µM, the CC50 (DU-145; DU-145, DU-145) was 0.631 µM and the IC (TGI) (DU-145; DU-145, DU-145) was 0.339 µM. The GI50 (PANC-1; PANC-1, PANC-1) was 0.398 µM, the CC50 (PANC-1; PANC-1, PANC-1) was 4.87 µM and the IC (TGI) (PANC-1; PANC-1, PANC-1) was 1.51 µM. It also gave a GI50 (LoVo-Dox) of 2.43 µM, a CC50 (LoVo-Dox) of 10.4 µM and an IC (TGI) (LoVo-Dox) of 6.04 µM.
